Measured values taken from article PMC9228535, “Antistaphylococcal Activities and ADME-Related Properties of Chlorinated Arylcarbamoylnaphthalenylcarbamates” (Pharmaceuticals, 2022).
Values after ≈ are worked out from the molar mass of the structure shown. Like-named read-outs stand apart in the source and are kept apart here.

How the values were obtained:
[1] = Lipophilicity determination by RP-HPLC (log k, log D); assay type: physicochemical; conditions: for log D6.5 / log D7.4 / log k: RP-HPLC; for log D6.5: MeOH 72%/acetate buffered saline pH 6.5; for log D7.4: MeOH 72%/acetate buffered saline pH 7.4; for log k: MeOH 72%/water 28%
Procedure: Lipophilicity was measured by reversed-phase high performance liquid chromatography (RP-HPLC) under isocratic conditions with methanol as the organic modifier in the aqueous mobile phase and the logarithm of the capacity factor k was calculated, which is used as the lipophilicity index converted to the log P scale. In addition to the log k values, the logarithm of the distribution coefficient DpH at pH 6.5 and 7.4 was determined to clarify the behavior of the compounds under physiological conditions and possible ionization. Instead of water, a buffer of suitable pH was used as part of the mobile phase. In addition to the above-mentioned experimental methods, commercially available ChemBioDraw Ultra 13.0 and ACD/Percepta ver. […] In addition to lipophilicity, other parameters discussed in Ro5, such as molecular weight, number of H-bond donors/acceptors, as well as parameters not reported in Ro5, but characterizing the physicochemical properties of the prepared molecules, such as number of rotatable bonds, were predicted using ACD/Percepta. Moreover, for each R substituent, bulkiness expressed as molar volume (MV [cm^3]), a parameter describing the tail length/branching of each carbamates, was calculated.
A HPLC separation module Agilent 1200 Series (Agilent Technologies, Santa Clara, CA, USA) equipped with a Dual Absorbance Detector (DAD SL G1315C, Agilent Technologies) was used. A chromatographic column Symmetry® C18 5 μm, 4.6 × 250 mm, Part No. W21751W016 (Waters Corp, Milford, MA, USA) was used. The HPLC separation process was monitored by ChemStation for LC 3D systems (Agilent Technologies). […] The total flow of the column was 1.0 mL/min, injection 20 μL, column temperature 40 °C, and sample temperature 10 °C. The detection wavelength of 210 nm was chosen. A KI methanolic solution was used for the determination of the dead times (tD). Retention times (tR) were measured in minutes. The capacity factors k were calculated according to the formula k = (tR − tD)/tD, where tR is the retention time of the solute, and tD is the dead time obtained using an unretained analyte. The distribution coefficients DpH were calculated according to the formula DpH = (tR − tD)/tD. Each experiment was repeated three times.

MRSA 63718 [2] = experiment: MIC, microtitration broth method; assay type: cell-based; conditions: Staphylococcus aureus
Procedure: (§1) All the investigated compounds were screened for in vitro antibacterial activity against the reference and quality control strain Staphylococcus aureus ATCC 29213 and clinical isolates of methicillin-resistant S. aureus (MRSA) 63718, SA 630, and SA 3202 [14]. Activities are expressed as the minimum inhibitory concentrations (MICs), see Table 2. In addition to the MICs, the minimum bactericidal concentrations (MBCs) were also determined.
(§2) In vitro antibacterial activity of the synthesized compounds was evaluated against representatives of multidrug-resistant bacteria, three clinical isolates of methicillin-resistant S. aureus: clinical isolate of animal origin, MRSA 63718 (Department of Infectious Diseases and Microbiology, Faculty of Veterinary Medicine, University of Veterinary Sciences Brno, Czech Republic), carrying the mecA gene; and MRSA SA 630 [46] and MRSA SA 3202 [46] (National Institute of Public Health, Prague, Czech Republic), both of human origin. Suspected colonies were confirmed by PCR; a 108bp fragment specific for S. aureus was detected. All isolates were tested for the presence of the mecA gene encoding methicillin resistance. […] Vancomycin-susceptible methicillin-susceptible S. aureus (VS-MSSA) ATCC 29213, obtained from the American Type Culture Collection, was used as the reference and quality control strain. Enterococcus faecalis ATCC 29212 was obtained from the American Type Culture Collection and used as the reference and quality control strain.
(§3) The minimum inhibitory concentrations (MICs) were evaluated by the microtitration broth method according to the CLSI [64, 65] with some modifications. The compounds were dissolved in DMSO (Sigma, St. Louis, MO, USA) to get a concentration […] and diluted in a microtitration plate in an appropriate medium, namely, Cation Adjusted Mueller–Hinton (CaMH, Oxoid, Basingstoke, UK) for staphylococci (S. aureus ATCC 29213, clinical isolates of MRSA 63718, SA 630, and SA 3202) and brain heart infusion (BHI, Oxoid) for E. faecalis ATCC 29212, to reach the final concentration of 256-0.125 µg/mL. The plate was inoculated by the tested microorganisms. The final concentration of bacterial cells was 10^5 for bacteria. Ampicillin (Sigma) was used as reference drugs. A drug-free control and a sterility control were included. The plates were incubated for 24 h at 37 °C for staphylococci and E. faecalis ATCC 29212 (stability evaluation of the carbamates, see Supplementary materials, Table S1). […] The experiments were repeated three times.

MRSA SA 3202 [3] = experiment: MIC, microtitration broth method; assay type: cell-based; conditions: Staphylococcus aureus
Procedure: as §1, §2, §3

MRSA SA 630 [4] = experiment: MIC, microtitration broth method; assay type: cell-based; conditions: Staphylococcus aureus
Procedure: as §1, §2, §3

[5] = system: Staphylococcus aureus ATCC 29213; experiment: MIC, microtitration broth method; assay type: cell-based; conditions: ATCC29213, SA = S. aureus ATCC 29213, 24 h, read-out: MIC
Procedure: as §1, §2, §3

[6] = system: Enterococcus faecalis ATCC 29212; experiment: MIC, microtitration broth method; assay type: cell-based; conditions: ATCC29212; EF = Enterococcus faecalis, 24 h; read-out: MIC
Procedure: as §2, §3

THP-1 cells = experiment: In vitro cytotoxicity assay (WST-1); assay type: cell-based; conditions: Homo sapiens; THP-1, 24 h, ± SD, n = 6; read-out: IC50
Procedure: Preliminary in vitro cytotoxicity screening of the investigated compounds was performed using human monocytic leukemia THP-1 cells, see Table 2. The ability to inhibit the human cancer cell viability (IC50) of the compounds was compared to camptothecin toxicity (0.16 ± 0.07 μM). […] However, these values are up to two orders of magnitude higher than their significant antistaphyloccocal concentrations. This fact is also taken into account in the calculated selectivity index (SI), Table 2, where for only three compounds the SI is <20, while for the rest of the agents SI is >20, and for some derivatives even 100 and more. Thus, based on all these observations, it can be concluded that all the tested derivatives can be considered as in vitro non-toxic compounds for the subsequent design of new therapeutic agents.
The human THP-1 cell line (European Collection of Cell Cultures, Salisbury, UK) was cultured in RPMI 1640 medium supplemented with 10% fetal bovine serum, 2% L-glutamine, 1% penicillin, and streptomycin at 37 °C with 5% CO2. Cells were passaged at approximately 1-week intervals. All the tested compounds were prepared and dissolved as mentioned in our previous work.

[7] = system: S. aureus and MRSA isolates; experiment: Antistaphylococcal MIC, summary over strains; assay type: cell-based, Staphylococcus aureus
Procedure: as §1, with “determined. […] MBC values that meet this requirement, i.e., the compound is bactericidal, are indicated in bold in Table 2.” for “determined.”
as §2
The minimum inhibitory concentrations (MICs) were evaluated by the microtitration broth method according to the CLSI [64, 65] with some modifications. […]

MRSA 63718 [8] = experiment: MBC, agar aliquot subculture method; assay type: cell-based; conditions: Staphylococcus aureus, MRSA
Procedure: as §1
(§4) For the S. aureus and MRSA isolates, the agar aliquot subculture method was used as a test for bactericidal agents. After the MIC value determination, the inoculum was transferred to Mueller–Hinton (Oxoid) agar using a multipoint inoculator. The plates were incubated in a thermostat at 37 °C for 24 h. The lowest concentration of test compound at which ≤5 colonies were obtained was then evaluated as MBC, corresponding to a 99.9% decrease in CFU relative to the original inoculum.

MRSA SA 3202 [9] = experiment: MBC, agar aliquot subculture method; assay type: cell-based; conditions: Staphylococcus aureus
Procedure: as §1, §4

MRSA SA 630 [10] = experiment: MBC, agar aliquot subculture method; assay type: cell-based; conditions: Staphylococcus aureus
Procedure: as §1, §4

[11] = system: Staphylococcus aureus ATCC 29213; experiment: MBC, agar aliquot subculture method; assay type: cell-based; conditions: ATCC29213, SA = S. aureus ATCC 29213, read-out: MBC
Procedure: as §1, §4

MIC (MRSA 63718 [2]; MRSA1 = MRSA 63718, 24 h, read-out: MIC) [µM] | MIC (MRSA SA 3202 [3]; MRSA3 = SA 3202, 24 h, read-out: MIC) [µM] | MIC (MRSA SA 630 [4]; MRSA2 = SA 630, 24 h, read-out: MIC) [µM] | SMILES | log D6.5 [1] | log D7.4 [1] | log k [1] | MIC [5] [µM] | MIC [6] [µM] | IC50 (THP-1 cells) [µM] | antistaphylococcal/antibacterial activity (in words) ([7]; S. aureus and MRSA isolates) | MIC (MRSA 63718 [2]; MRSA, 24 h) [µM] | MIC (MRSA SA 3202 [3]; 24 h) [µM] | MIC (MRSA SA 630 [4]; 24 h) [µM] | MBC (MRSA 63718 [8]) [µM] | MBC (MRSA SA 3202 [9]) [µM] | MBC (MRSA SA 630 [10]) [µM] | MBC [11] [µM] | MIC ([7]; Staphylococcus aureus, read-out: MICs) [µM] | lipophilicity (experimental log k/log D, approximate) [1]
698 (≈ 256 µg/mL) | 698 (≈ 256 µg/mL) | 698 (≈ 256 µg/mL) | O=C(Nc1cc(Cl)c(Cl)cc1Cl)c1ccc2ccccc2c1O [Compound 1, 1-hydroxy-N-(2,4,5-trichlorophenyl)-2-naphthamide] | 0.5782 | 0.5384 | 0.6600 | 698 (≈ 256 µg/mL) | 477 (≈ 175 µg/mL) | > 30 | no antibacterial activity |  |  |  |  |  |  |  |  | 
 |  |  | CCCCNC(=O)Oc1c(C(=O)Nc2cc(Cl)c(Cl)cc2Cl)ccc2ccccc12 [Compound 4, 2-[N-(2,4,5-Trichlorophenyl)carbamoyl]naphthalen-1-yl butyl carbamate] | 0.9980 | 1.1401 | 1.0756 | 0.034 (≈ 0.0158 µg/mL) | 275 (≈ 128 µg/mL) | 3.42 ± 0.1 |  | 0.135 (≈ 0.0629 µg/mL) | 0.069 (≈ 0.0321 µg/mL) | 0.017 (≈ 0.00792 µg/mL) | 0.268 (≈ 0.125 µg/mL) | 0.069 (≈ 0.0321 µg/mL) | 0.537 (≈ 0.25 µg/mL) | 0.034 (≈ 0.0158 µg/mL) | 0.018 to 0.064 (≈ 0.00838 to 0.0298 µg/mL) | 
 |  |  | O=C(NC1CCCC1)Oc1c(C(=O)Nc2cc(Cl)c(Cl)cc2Cl)ccc2ccccc12 [Compound 10, 2-[N-(2,4,5-Trichlorophenyl)carbamoyl]naphthalen-1-yl cyclopentyl carbamate] | 1.1521 | 1.1515 | 1.1481 | 0.262 (≈ 0.125 µg/mL) | 268 (≈ 128 µg/mL) | 3.23 ± 0.29 |  | 0.262 (≈ 0.125 µg/mL) | 2.09 (≈ 0.999 µg/mL) | 0.262 (≈ 0.125 µg/mL) | 0.262 (≈ 0.125 µg/mL) | 2.09 (≈ 0.999 µg/mL) | 1.05 (≈ 0.5 µg/mL) | 0.262 (≈ 0.125 µg/mL) |  | ca. 1.15
